Measurements reported in patent publication US20220015355A1, “NOVEL CARRIER FLUIDS FOR LIQUID FUNGAL SPORE FORMULATIONS” (priority 2018, published 2022).
Like-named read-outs stand apart in the source and are kept apart here.

How the values were obtained:
[1] = tested on: Penicillium bilaii (ATCC 20851) spores; test: spore viability (germination rate on agar) of Penicillium bilaii spores in carrier fluid after storage at 30° C.; assay type: cell-based
Procedure: (§1) 1.5 g of Penicillium bilaii (ATCC 20851) pure spore powder were transferred into a formulation vessel (IKA Type DT-20 mixing vessel with dispersion tool for Ultra Turrax) using a sterile spoon. 13.5 mL of fluid were added into the respective formulation vessel and dispersed using ultra turrax tube drive control for 1 min at 3000 rpm; change direction after 30 sec. After this 2.8 mL were transferred in four sample bottles (Wheaton Serum vial, Type I) leaving little headspace and closed tight using crimpneck caps (Macherey—Nagel type N 13) Afterwards all sample bottles were transferred to an incubator set at 30° C. and stored for a given time.
(§2) In regular intervals a sample was retrieved from the storage location and analyzed for spore viability. Therefore the original samples were thoroughly homogenized. Aliquots of 0.25 g or […] of each sample are transferred into 50 mL falcon tubes. The tubes were filled up to 25 g using a sterile aqueous solution containing 2% Tween 80 and homogenized by vortexing to achieve the first dilution step (1:100 dilution). This dilution is used for further dilution and spotting on agar.
(§3) For evaluation of spore germination rate prepare a 1:15000 dilution based on the 1:100 dilution achieved by multiple automated dilution (pipetting robot, 96 well plate). Afterwards 12×12 cm agar plates are taken and spotted with 10 times […] of each sample using an automated 12-Channel pipet. Wait until liquid is soaked up by agar and transfer agar plate to an incubator and incubate at 20° C. for 17 hours. Open the plate and place it under the microscope. Randomly choose one area per spot and record the number of germinated and non-germinated spores that are within the designated field. At least 200 spores per sample need to be evaluated. If needed count more than one field per spot.

[2] = tested on: P. lilacinum strain 251 spores; test: spore viability (germination rate on agar) of P. lilacinum spores in carrier fluid after storage at 30° C.; assay type: cell-based, Purpureocillium lilacinum
Procedure: as §1, with “3” for “1.5”, “P. lilacinum strain 251” for “Penicillium bilaii (ATCC 20851)”, “12” for “13.5”
as §2
as §3, with “1:30000” for “1:15000”, “25°” for “20°”

[3] = tested on: Isaria fumosorosea spores; test: spore viability of Isaria fumosorosea spores in carrier fluid after storage, Method 2 (flow cytometry); assay type: cell-based
Procedure: Method 2: 0.5 g of Isaria fumosoresea pure spore powder were transferred into an Erlenmeyer flask using a sterile spoon. 24.5 mL of fluid were dispersed using Ultra-Turrax (IKA; Type T 25 D) for 1 min at 3,000 rpm. After this, 2.0 mL were transferred in 20 sample bottles (Wheaton Serum vial, Type I) leaving little headspace and closed tight using crimpneck caps (Macherey—Nagel type N 13). Afterwards all sample bottles were transferred to an incubator set at 30° C. and stored for a given time.
In regular intervals a sample was retrieved from the storage location and analyzed for spore viability. For this purpose, the original samples were thoroughly homogenized. Aliquots of 0.5 g of each sample were transferred into 100 mL-Erlenmeyer flask. The flasks were filled up to 50 g using a sterile aqueous solution containing 0.1% Break Thru® 5240 (Evonik, Industries) and homogenized on a magnetic stirrer (Thermo Fisher Scientific: Cimarec™) at least for 15 min with 750 rpm to achieve the first dilution step (1:100 dilution). This dilution was used for further dilution.
Not all samples mixed well or mixed at all in 0.1% Break Thru 5240. For these samples, 500 μL Neo-wett (Kwizda Agro GmbH) and/or a small amount (knife tip) Metaupon®-OMT (LEUNA Tenside GmbH) were also added to the aqueous solution.
After homogenization 1 mL were transferred into a 1.5 mL tube and were centrifuged for 15 min at 14,000 rpm (Thermo Fisher Scientific, Type Megafuge 8R). The supernatant (=upper phase) was discarded by using a pipette. The tubes were filled up to 1 mL using a sterile aqueous solution containing 0.1% Neo-wett and homogenized by vortexing.
To assess fungal viability, a method based on flow cytometry was used.

[4] = tested on: Beauveria Bassiana spores; test: spore viability (germination rate on agar) of Beauveria bassiana spores in carrier fluid after storage at 30° C.; assay type: cell-based
Procedure: as §1, with “Beauveria Bassiana” for “Penicillium bilaii (ATCC 20851)”
as §2, §3

[5] = tested on: Isaria fumosorosea spores; test: spore viability of Isaria fumosorosea spores in carrier fluid after storage at 30° C., Method 1 (germination on agar); assay type: cell-based
Procedure: as §1, with “Method 1: 1.5” for “1.5”, “Isaria fumosorosea” for “Penicillium bilaii (ATCC 20851)”
as §2
For evaluation of spore germination rate a 1:15000 dilution based on the 1:100 dilution achieved by multiple automated dilution (pipetting robot, 96 well plate) was prepared. Afterwards 12×12 cm agar plates were taken and spotted with 10 times 5 μL of each sample using an automated 12-Channel pipet. After all liquid is soaked up by agar the agar plates were incubated at 23° C. for 16 hours.

[6] = P. lilacinum strain 251 in the liquid, day 1
[7] = I. fumosorosea, Method 1, day 1
[8] = Method 1, storage at 30° C., 27 d
[9] = Method 1, storage at 30° C., 210 d

## COC(C)COC(C)COC(C)CO (stereo not drawn) [Dowanol TPM, Tripropylene Glycol monomethyl ether]
[1]; Penicillium bilaii, 1-2 d
  spore viability [%] initial (1-2 d): 67.2%
[1]; storage at 30° C., 41-43 d
  spore viability [%] 6 w@30° C. (41-43 d): 7.6%
[1]; storage at 30° C., 83-85 d
  spore viability [%] 3 m@30° C. (83-85 d): 2.8%
[2]; [6]
  spore viability [%] at day 1: 85.4%
[2]; storage at 30° C., 12-15 d
  spore viability [%] after 2 w (12-15 d): 94.3%
[2]; storage at 30° C., 27-28 d
  spore viability [%] after 1 m (27-28 d): 95.6%
[2]; storage at 30° C., 51-55 d
  spore viability [%] after 2 m (51-55 d): 84.5%
[3]; I. fumosorosea, Method 2, day 1
  spore viability [%] at day 1: 82.0%
[3]; Method 2, storage at 30° C., 27 d
  spore viability [%] after 1 m (27 d): 59.0%
[4]; Beauveria bassiana, day 1
  spore viability [%] at day 1: 63.9%
[4]; storage at 30° C., 14 d
  spore viability [%] after 2 w (14 d): 19.0%
[4]; storage at 30° C., 35 d
  spore viability [%] after 5 w (35 d): 15.5%
[5]; [7]
  spore viability [%] at day 1: 88.0%
[5]; [8]
  spore viability [%] after 1 m (27 d): 65.4%
[5]; [9]
  spore viability [%] after 7 m (210 d): 52.6%

## Polyethyleneglycol-200 monooleate [Radiasurf 7402]
[2]
  spore viability [%] after 1 m (27-28 d): 64.8%
  spore viability [%] after 2 m (51-55 d): 34.7%
  spore viability [%] after 2 w (12-15 d): 83.6%
  spore viability [%] at day 1: 96.7%
[3]
  spore viability [%] after 1 m (27 d): 15.8%
  spore viability [%] after 2 w (~14 d): 20.5%
  spore viability [%] at day 1: 89.9%
[5]
  spore viability [%] after 1 m (27 d): 11.6%
  spore viability [%] after 7 m (210 d): 1.1%
  spore viability [%] at day 1: 92.5%

## CCCCOCCOCCO [Butylcarbitol, diethylenglycol monobutylether, reference compound]
[2]; [6]
  spore viability [%] at day 1: 92.7%
[2]; storage at 30° C., 12-15 d
  spore viability [%] after 2 w (12-15 d): 62.1%
[2]; storage at 30° C., 27-28 d
  spore viability [%] after 1 m (27-28 d): 10.8%
[2]; storage at 30° C., 51-55 d
  spore viability [%] after 2 m (51-55 d): 3.2%
[2]; storage at 30° C., 210 d
  spore viability [%] after 7 m (210 d): 0.6%
[2]; text summary of Table I, fluids not within the scope of the invention
  decline in spore viability at day 1 and after storage: steep decline in spore viability
[4]; Beauveria bassiana, day 1
  spore viability [%] at day 1: 53.3%
[4]; Table III, fluids not within the scope of the invention
  decline in spore viability after storage under given conditions: steep decline in spore viability
[4]; storage at 30° C., 35 d
  spore viability [%] after 5 w (35 d): 0.8%
[5]; [7]
  spore viability [%] at day 1: 19.1%
[5]; [8]
  spore viability [%] after 1 m (27 d): 0.5%
[5]; [9]
  spore viability [%] after 7 m (210 d): 2.4%

## Polyethyleneglycol-400 monooleate [Radiasurf 7403]
[1]
  spore viability [%] 3 m@30° C. (83-85 d): 61.8%
  spore viability [%] 6 w@30° C. (41-43 d): 66.8%
  spore viability [%] initial (1-2 d): 78.1%
[2]
  spore viability [%] after 1 m (27-28 d): 98.9%
  spore viability [%] after 2 m (51-55 d): 93.7%
  spore viability [%] after 2 w (12-15 d): 98.3%
  spore viability [%] after 7 m (210 d): 78.3%
  spore viability [%] at day 1: 98.6%
[3]
  spore viability [%] after 1 m (27 d): 92.0%
  spore viability [%] after 2 w (~14 d): 86.0%
  spore viability [%] at day 1: 89.0%
[4]
  spore viability [%] after 2 w (14 d): 77.3%
  spore viability [%] after 5 w (35 d): 72.3%
  spore viability [%] at day 1: 81.4%
  spore viability after storage for 3w or longer at 30° C.: ≥ 50%
[5]
  spore viability [%] after 1 m (27 d): 76.2%
  spore viability [%] at day 1: 94.0%

## Polyethyleneglycol-400 dioleate [Radiasurf 7442]
[1]
  spore viability [%] 3 m@30° C. (83-85 d): 76.5%
  spore viability [%] 6 w@30° C. (41-43 d): 91%
  spore viability [%] initial (1-2 d): 96.7%
[2]
  spore viability [%] after 1 m (27-28 d): 98.2%
  spore viability [%] after 2 m (51-55 d): 96.8%
  spore viability [%] after 2 w (12-15 d): 96.5%
  spore viability [%] after 7 m (210 d): 88.3%
  spore viability [%] at day 1: 98.7%
[3]
  spore viability [%] after 1 m (27 d): 66.3%
  spore viability [%] after 2 w (~14 d): 69.6%
  spore viability [%] at day 1: 87.4%
[4]
  spore viability [%] after 3 w (21 d): 33.2%
  spore viability [%] at day 1: 85.9%
[5]
  spore viability [%] after 1 m (27 d): 72.1%
  spore viability [%] at day 1: 89.4%
